The record followed here is US10947229B2, “Dimethyl amino azetidine amides as JAK inhibitors” (THERAVANCE BIOPHARMA R&D IP, LLC, priority 2018, dated 2021).

In one experiment the target is JAK2 (Homo sapiens (Human), UniProt O60674). The experiment can be described thus: Biochemical JAK kinase assay (LanthaScreen), JAK2. The conditions noted are these: read-out: JAK2 pKi (converted). The method, then:
Recombinant GST-tagged JAK enzymes and a GFP-tagged STAT1 peptide substrate were obtained from Life Technologies. Serially diluted compounds were pre-incubated with each of the four JAK enzymes and the substrate in white 384-well microplates (Corning) at ambient temperature for 1 h. ATP was subsequently added to initiate the kinase reactions in 10 μL total volume, with 1% DMSO. […] Kinase reactions were allowed to proceed for 1 hour at ambient temperature before a 10 μL preparation of EDTA (10 mM final concentration) and Tb-anti-pSTAT1 ([…]) antibody (Life Technologies, 2 nM final concentration) in TR-FRET dilution buffer (Life Technologies) was added. The plates were allowed to incubate at ambient temperature for 1 h before being read on the EnVision reader (Perkin Elmer). Emission ratio signals (520 nm/495 nm) were recorded and utilized to calculate the percent inhibition values based on DMSO and background controls. For dose-response analysis, percent inhibition data were plotted vs. compound concentrations, and IC50 values were determined from a 4-parameter robust fit model with the Prism software (GraphPad Software). Results were expressed as pIC50 (negative logarithm of IC50) and subsequently converted to pKi (negative logarithm of dissociation constant, Ki) using the Cheng-Prusoff equation. Test compounds having a lower Ki value or higher pKi value in the four JAK assays show greater inhibition of JAK activity.
A general note: In TR-FRET formats the signal depends on donor and acceptor labels being close together.

Experiment [1] relates to IFNγ stimulated STAT1 phosphorylation in CD14+ monocytes. Kind of experiment: Cellular JAK potency assay: inhibition of IFNγ-induced pSTAT1. Format: cell-based. Particulars: Monocyte; CD14+ monocytes from human whole blood; read-out: pIC50, inhibition of IFNγ-induced pSTAT1 (converted). On the procedure: The potency of test compounds for inhibition of interferon gamma (IFNγ) stimulated STAT1 phosphorylation was measured in CD14-positive (CD14+) monocytes derived from human whole blood (Stanford Blood Center) using flow cytometry. Because IFNγ signals through JAK, this assay provides a measure of JAK cellular potency. Monocytes were identified using a fluorescein isothiocyanate (FITC) conjugated anti-CD14 antibody (Clone RM052, Beckman Coulter), and an Alexa Fluor 647 conjugated anti-pSTAT1 antibody ([…], Clone 4a, BD Biosciences) was used to detect STAT1 phosphorylation. Human peripheral blood mononuclear cells (PBMC) were isolated from human whole blood of healthy donors using a ficoll gradient. […] Cells were washed twice with FACS buffer, and then re-suspended in 1:10 anti-pSTAT1 Alexa Fluor 647:FACS buffer (100 μL) for 30 min at RT in the dark, washed twice in FACS buffer, and analyzed using a MACSQuant flow cytometer (Miltenyi). To determine the inhibitory potency of the test compound, the median fluorescent intensity (MFI) of pSTAT1 was measured in CD14+ monocytes. IC50 values were determined from analysis of the inhibition curves of MFI vs compound concentration. Data are expressed as pIC50 (negative decadic logarithm IC50) values.

Experiment [2] concerns IFNγ secretion in mixed lymphocyte reaction. Kind of experiment: Inhibition of IFNγ secretion in a mixed lymphocyte reaction assay. Format: cell-based, human. The method, then: The mixed lymphocyte reaction assay is an in-vitro assay that mimics transplant rejection. T cells from one donor are cultured with allogeneic dendritic cells from another donor. This reaction induces a cellular immune response such as IFNγ secretion. CD14+ monocytes were isolated from human whole blood (Stanford blood center) of donor A using a ficoll gradient and magnetic seperation (CD14 microbeads, Miltenyi). […] Cells were harvested, washed with media, re-suspended to 400,000 cells/ml in media and plated at 10,000 cells/well/25 μl. CD4+ T cells were freshly isolated from human whole blood (Stanford blood center) of donor B using a ficoll gradient and magnetic separation (CD4+ T cell isolation kit, Miltenyi). T cells were re-susepended to 4,000,000 cells/ml in RPMI (Life Technologies) supplemented with 10% Fetal Bovine Serum (FBS, Life Technologies), 2 mM Glutamax (Life Technologies), 25 mM HEPES (Life Technologies) and 1× Pen/Strep (Life Technologies). CD4+ T cells were mixed with the dendritic cells at 100,000 cells/well/25 μl. Cells were treated with test compounds (50 μl at 20 μM, 2 μM and/or 0.2 μM) to a final concentration of 10 μM, 1 μM and/or 0.1 μM. Compounds were diluted in dimethyl sulfoxide (DMSO, Sigma) to a final concentration of 0.1%. DMSO at 0.1% was used as a vehicle control. Cells were maintained for 5 days in a 37° C., 5% CO2 humidified incubator. On day 5, supernatants were collected and measured for interferon gamma (INFγ) using enzyme linked immunosorbent assay (ELISA). Percent inhibition was determined by compound inhibitory potency against IFNγ secretion compared to vehicle treated cells. Data is the average from 4 donors.

Structures are written as SMILES.

The inhibition is the change of the read-out against control, counted positive when it falls. A lower inhibition goes with a response near the control.

JAK2, sequence (O60674 whole entry): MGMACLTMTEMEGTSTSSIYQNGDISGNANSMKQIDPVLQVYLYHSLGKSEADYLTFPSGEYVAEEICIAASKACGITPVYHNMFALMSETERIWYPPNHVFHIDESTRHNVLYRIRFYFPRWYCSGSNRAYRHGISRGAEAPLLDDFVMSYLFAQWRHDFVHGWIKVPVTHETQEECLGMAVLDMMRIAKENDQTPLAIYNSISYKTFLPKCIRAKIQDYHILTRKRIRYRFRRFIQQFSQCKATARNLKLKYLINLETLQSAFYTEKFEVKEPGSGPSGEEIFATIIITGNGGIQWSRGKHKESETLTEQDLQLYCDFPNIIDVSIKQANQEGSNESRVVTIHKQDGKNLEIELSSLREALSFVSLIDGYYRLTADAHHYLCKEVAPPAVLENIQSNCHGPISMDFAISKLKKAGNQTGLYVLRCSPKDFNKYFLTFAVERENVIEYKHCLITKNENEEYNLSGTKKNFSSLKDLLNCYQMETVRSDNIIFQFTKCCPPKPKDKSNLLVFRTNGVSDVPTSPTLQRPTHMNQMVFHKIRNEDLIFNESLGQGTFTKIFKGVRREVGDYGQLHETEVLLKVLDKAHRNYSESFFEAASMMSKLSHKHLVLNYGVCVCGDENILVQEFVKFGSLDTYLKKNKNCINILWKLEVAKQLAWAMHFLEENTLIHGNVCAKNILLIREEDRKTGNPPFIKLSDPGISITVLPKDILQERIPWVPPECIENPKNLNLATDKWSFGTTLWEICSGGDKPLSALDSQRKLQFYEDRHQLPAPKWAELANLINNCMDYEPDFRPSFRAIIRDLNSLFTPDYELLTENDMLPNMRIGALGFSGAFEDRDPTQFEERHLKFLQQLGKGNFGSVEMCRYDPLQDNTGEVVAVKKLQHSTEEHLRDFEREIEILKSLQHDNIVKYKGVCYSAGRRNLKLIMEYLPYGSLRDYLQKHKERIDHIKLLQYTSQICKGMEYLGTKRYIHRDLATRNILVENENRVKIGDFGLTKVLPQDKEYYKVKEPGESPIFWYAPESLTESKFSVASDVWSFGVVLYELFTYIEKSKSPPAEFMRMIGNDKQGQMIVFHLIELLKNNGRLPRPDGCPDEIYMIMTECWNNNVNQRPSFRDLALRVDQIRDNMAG

Take `CCc1cc(O)ccc1-c1ccc2c(-c3nc4c([nH]3)CN(C(C)C)[C@H](C(=O)N3CC(N(C)C)C3)C4)n[nH]c2c1` [Compound 1, (S)-(3-(dimethylamino)azetidin-1-yl)(2-(6-(2-ethyl-4-hydroxyphenyl)-1H-indazol-3-yl)-5-isopropyl-4,5,6,7-tetrahydro-3H-imidazo[4,5-c]pyridin-6-yl)methanone]: at JAK2, the Ki was 0.0316 nM. In experiment [1], the IC50 is 31.6 nM. The same molecule showed an inhibition at 0.1 µM in experiment [2] (Homo sapiens, Lymphocyte, 120 h, 0.1 μM, 5 days, 4 donors) of 43%. Further, at 10 µM the inhibition in experiment [2] (Homo sapiens, Lymphocyte, 120 h, 10 μM, 5 days, 4 donors) was 99%. In experiment [2] (Homo sapiens, Lymphocyte, 120 h, printed "at μM" (middle concentration, 1 μM in the method), 5 days, 4 donors), 1 µM produced 76% inhibition. Further, the “inhibition of IFNγ secretion (in words)” value in experiment [2] (mixed lymphocyte reaction) was “effectively inhibit IFNγ secretion”.
